The text below walks through data of US20090163521A1, “Novel Pyrazolopyrimidinone Derivatives” (ORCHID RESEARCH LABORATORIES LIMITED, priority 2005, published 2009).

Assay type in all cases: cell-based
In one experiment the target is T1, COX-2 (Homo sapiens, UniProt P35354).
T1 construct: Fresh blood was collected in tubes containing sodium heparin by vein puncture from healthy male volunteers; endogenous in cells; host or cells: human whole blood from healthy male volunteers, aspirin-pretreated and LPS-stimulated
T1 sequence (P35354 18-604): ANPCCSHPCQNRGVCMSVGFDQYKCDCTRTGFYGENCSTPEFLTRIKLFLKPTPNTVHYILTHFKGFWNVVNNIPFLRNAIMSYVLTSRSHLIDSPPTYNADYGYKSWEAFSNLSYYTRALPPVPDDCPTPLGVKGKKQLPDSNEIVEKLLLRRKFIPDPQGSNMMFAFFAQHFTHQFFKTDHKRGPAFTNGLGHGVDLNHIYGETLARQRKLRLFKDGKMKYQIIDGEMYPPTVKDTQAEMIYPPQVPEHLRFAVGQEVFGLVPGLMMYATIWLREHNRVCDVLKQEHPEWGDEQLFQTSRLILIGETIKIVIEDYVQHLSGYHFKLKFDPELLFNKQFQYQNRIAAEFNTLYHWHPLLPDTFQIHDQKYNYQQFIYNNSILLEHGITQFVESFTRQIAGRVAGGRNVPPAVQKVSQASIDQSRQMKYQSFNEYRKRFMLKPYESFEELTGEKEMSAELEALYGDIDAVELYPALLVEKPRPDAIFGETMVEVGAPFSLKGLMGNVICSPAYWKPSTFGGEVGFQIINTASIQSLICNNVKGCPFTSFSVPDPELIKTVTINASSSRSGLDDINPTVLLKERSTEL
Kind of experiment: Human whole blood assay (LPS-induced PGE2, COX-2 inhibition). The conditions noted are these: LPS stimulated. The procedure: Human whole blood provides a protein and cell rich milieu appropriate for the study of biochemical efficacy of anti-inflammatory compounds such as selective COX-2 inhibitors. […] This is correlating with the observation that COX-2 inhibitors have no effect on prostaglandin E2 (PGE2) production in normal blood. These inhibitors were active only after incubation of human blood with lipopolysaccharide (LPS), which induces COX-2 production in the blood.
Fresh blood was collected in tubes containing sodium heparin by vein puncture from healthy male volunteers. The subjects should have no apparent inflammatory conditions and not taken NSAIDs for at least 7 days prior to blood collection. Blood was preincubated with aspirin in vitro (12 μg/ml, at time zero) to inactivate COX-1 for 6 hours. Then test compounds (at various concentrations) or vehicle were added to blood. After that blood was stimulated with LPS B:4 (10 μg/ml) and incubated for another 18 h at 37° C. water bath. After which the blood was centrifuged, plasma was separated and stored at −80° C. (J. Pharmacol. Exp. Ther, 271, 1705, 1994; Proc. Natl. Acad. Sci. USA, 96, 7563, 1999). The plasma was assayed for PGE2 using Cayman ELISA kit as per the procedure outlined by the manufacturer (Cayman Chemicals, Ann Arbor, USA).

Another experiment deals with NCI-H460. Kind of experiment: DTP human tumor cell line screen, NCI-H460. The conditions noted are these: 100 μM; 48 hours; percent growth of control. As for the experimental part: (§1) The current assay utilizes a 384 well plate format and fluorescent staining technologies resulting in greater screening capacity for testing of synthetic samples.
(§2) The cell lines of the cancer-screening panel are grown in RPMI 1640 medium containing 5% fetal bovine serum and 2 mM L-glutamine. For a typical screening experiment, cells are inoculated into 96 well microtiter plates in 100 μL. After cell inoculation, the micro-titer plates are incubated at 37° C., 5% CO2, 95% air and 100% relative humidity for 24 h prior to addition of experimental drugs. The cells are plated a densities of 5000 cells/well (MCF7), 1000 cells/well (NCI-H460), and 7500 cells/well (SF-268) to allow for varying doubling time of the cell lines. Each plate contains all three-cell lines, a series of dilutions of standard agents, total kill wells and appropriate controls. Plates are incubated under standard conditions for 24 hours prior to addition of experimental compounds or extracts.
(§3) Experimental compounds are solubilized in dimethyl sulfoxide (DMSO) at 400-times the desired maximum test concentration (maximum final DMSO concentration of 0.25%) and stored frozen. Compounds are then diluted with complete media with 0.1% gentamicin sulfate (5 μl of test sample in 100% DMSO is added to 565 μl of complete medium). 20 μl of this solution is then dispensed into test wells containing 50 μl of cell suspension to yield a test concentration of 1.00E-04M.
(§4) After compound addition, plates are incubated at standard conditions for 48 hours, 10 μl/well Alamar Blue is added and the plates are incubated for an additional 4 hours. Fluorescence is measured using an excitation wavelength of 530 nm and an emission wavelength of 590 nm.
(§5) Percent growth is calculated on a plate-by-plate basis for test wells relative to control wells. Percent Growth is expressed as the ratio of fluorescence of the test well to the average fluorescence of the control wells ×100.

The test system of another experiment is MCF-7. Kind of experiment: DTP human tumor cell line screen, MCF-7. The conditions noted are these: 100 μM; 48 hours; percent growth of control. The procedure:
as §1, §2, §3, §4, §5

The next experiment has as its system SF-268. The experiment in a line: DTP human tumor cell line screen, SF-268. The conditions noted are these: 100 μM; 48 hours; percent growth of control. As for the experimental part: as §1, §2, §3, §4, §5
Another experiment has as its system TNF-α. The experiment in a line: In vitro measurement of TNF-α in LPS-stimulated human PBMC. The conditions noted are these: LPS 1 μg/ml, 18 h. The procedure: This assay determines the effect of test compounds on the production of TNF α in human Peripheral Blood Mononuclear Cells (PBMC). Compounds were tested for their ability to inhibit the activity of TNF α in human PBMC. PBMC were isolated from blood (from healthy volunteers) using BD Vacutainer CPT™ (Cell preparation tube, BD Bio Science) and suspended in RPMI medium (Physiol. Res. 52: 593-598, 2003). The test compounds were pre-incubated with PBMC (0.5 million/incubation well) for 15 minutes at 37° C. and then stimulated with Lipopolysaccharide (Escherichia coli: B4; 1 μg/ml) for 18 h at 37° C. in 5% CO2. The levels of TNFα in cell culture medium were estimated using enzyme linked Immunosorbent assay performed in a 96 well format as per the procedure of the manufacturer (Cayman Chemical, Ann Arbor, USA).

For the compound `Nc1n[nH]c2nc(-c3ccccc3)n(-c3ccc(F)cc3)c(=O)c12` [Example 12, 3-Amino-5-(4-fluorophenyl)-6-phenyl-1,5-dihydro-4H-pyrazolo[3,4-d]pyrimidin-4-one], on COX-2, the inhibition (commonly the drop in the measured response relative to a control, in per cent) at 0.25 µM was determined as 26.2%.
Same read-out and setting: in the case of `Cc1ccc(-n2c(-c3ccccc3)nc3[nH]nc(N)c3c2=O)cc1` [Example 16, 3-Amino-5-(4-methylphenyl)-6-phenyl-1,5-dihydro-4H-pyrazolo[3,4-d]pyrimidin-4-one] it was 31.4%.
On COX-2, `CSc1ccc(-n2c(-c3ccc(C(F)(F)F)cc3)nc3[nH]nc(N)c3c2=O)cc1` [Example 17, 3-Amino-5-[(4-methylthio)phenyl]-6-(4-trifluoromethylphenyl)-1,5-dihydro-4H-pyrazolo[3,4-d]pyrimidin-4-one] yielded an inhibition at 0.25 µM of 19.4% and an inhibition at 10 µM of 36.5%. The “% T/C Lung (NCI-H460)” value in the experiment on NCI-H460 was 25%. Besides, in the experiment with MCF-7, the “% T/C Breast (MCF-7)” value was 0%. Further, the “% T/C CNS (SF-268)” value in the experiment on SF-268 amounted to 0%.
On to `CSc1ccc(-n2c(-c3ccc(F)cc3)nc3[nH]nc(N)c3c2=O)cc1` [Example 5, 3-Amino-5-[(4-methylthio)phenyl]-6-(4-fluorophenyl)-1,5-dihydro-4H-pyrazolo[3,4-d]pyrimidin-4-one], for which the inhibition at 10 µM against COX-2 is 31.8%.
`CCOc1ccc(-n2c(-c3ccc(SC)cc3)nc3[nH]nc(N)c3c2=O)cc1` [Example 15, 3-Amino-5-(4-ethoxyphenyl)-6-[(4-methylthio)phenyl]-1,5-dihydro-4H-pyrazolo[3,4-d]pyrimidin-4-one] came in with an inhibition at 0.25 µM on COX-2 of 20.2%.
On to `CSc1ccc(-n2c(-c3ccc(Cl)cc3)nc3[nH]nc(N)c3c2=O)cc1` [Example 8, 3-Amino-5-[(4-methylthio)phenyl]-6-(4-chlorophenyl)-1,5-dihydro-4H-pyrazolo[3,4-d]pyrimidin-4-one], for which the inhibition at 0.25 µM against COX-2 worked out at 28.3%. For the same compound, in the experiment with NCI-H460, the “% T/C Lung (NCI-H460)” value is on record as 2%. In addition, in the experiment on MCF-7, the “% T/C Breast (MCF-7)” value turned out to be 26%. For the same compound, the “% T/C CNS (SF-268)” value in the experiment with SF-268 stood at 36%.
In the experiment with TNF-α, `CSc1ccc(-c2nc3c(c(N)nn3C(C)=O)c(=O)n2-c2ccc(C)c(C)c2)cc1` [Example 37, 1-Acetyl-3-amino-5-(3,4-dimethylphenyl)-6-[(4-methylthio)phenyl]-1,5-dihydro-4H-pyrazolo[3,4-d]pyrimidin-4-one] yielded an inhibition at 10 µM of 29.9%.
Same read-out and setting: the result for `CSc1ccc(-c2nc3c(c(N)nn3C)c(=O)n2-c2ccc(Br)cc2)cc1` [Example 30, 3-Amino-5-(4-bromophenyl)-1-methyl-6-[4-(methylthio)phenyl]-1,5-dihydro-4H-pyrazolo[3,4-d]pyrimidin-4-one] reads 86.6%.
Still for that read-out and setting: the result for `COc1ccc(-n2c(-c3ccc(N(C)C)cc3)nc3c(c(N)nn3C)c2=O)cc1` [Example 31, 3-Amino-6-[4-(dimethylamino)phenyl]-5-(4-methoxyphenyl)-1-methyl-1,5-dihydro-4H-pyrazolo[3,4-d]pyrimidin-4-one] reads 87.9%.
On to `CSc1ccc(-n2c(-c3ccc(C)cc3)nc3[nH]nc(N)c3c2=O)cc1` [Example 13, 3-Amino-5-[(4-methylthio)phenyl]-6-(4-methylphenyl)-1,5-dihydro-4H-pyrazolo[3,4-d]pyrimidin-4-one], for which the inhibition at 0.25 µM on COX-2 stood at 26.8%.
`CSc1ccc(-c2nc3c(c(N)nn3C)c(=O)n2-c2ccc(F)cc2)cc1` [Example 25, 3-Amino-5-(4-fluorophenyl)-1-methyl-6-[4-(methylthio)phenyl]-1,5-dihydro-4H-pyrazolo[3,4-d]pyrimidin-4-one] displayed an inhibition at 10 µM with TNF-α of 52.9%.
On COX-2, `CSc1ccc(-c2nc3[nH]nc(N)c3c(=O)n2-c2ccc(C(C)(C)C)cc2)cc1` [Example 6, 3-Amino-5-(4-tert-butylphenyl)-6-[4-(methylthio)phenyl]-1,5-dihydro-4H-pyrazolo[3,4-d]pyrimidin-4-one] yielded an inhibition at 0.25 µM of 18.6% and an inhibition at 10 µM of 37.7%. Besides, in the experiment on NCI-H460, the “% T/C Lung (NCI-H460)” value worked out at 0%. Besides, the “% T/C Breast (MCF-7)” value in the experiment with MCF-7 turned out to be 0%. For the same compound, in the experiment on SF-268, the “% T/C CNS (SF-268)” value turned out to be 1%.
`CSc1ccc(-n2c(-c3ccccc3)nc3[nH]nc(N)c3c2=O)cc1` [Example 11, 3-Amino-5-[(4-methylthio)phenyl]-6-phenyl-1,5-dihydro-4H-pyrazolo[3,4-d]pyrimidin-4-one] came in with an inhibition at 10 µM at COX-2 of 29.2%.
For the compound `CCc1ccc(-n2c(-c3ccc(SC)cc3)nc3[nH]nc(N)c3c2=O)cc1` [Example 10, 3-Amino-5-(4-ethylphenyl)-6-[(4-methylthio)phenyl]-1,5-dihydro-4H-pyrazolo[3,4-d]pyrimidin-4-one], in the experiment on NCI-H460, the “% T/C Lung (NCI-H460)” value is listed as 4%. Besides, in the experiment with MCF-7, the “% T/C Breast (MCF-7)” value was 22%. Besides, the “% T/C CNS (SF-268)” value in the experiment with SF-268 stood at 10%.
At COX-2, `Cc1ccc(-n2c(-c3ccc(S(C)(=O)=O)cc3)nc3[nH]nc(N)c3c2=O)cc1` [Example 14, 3-Amino-5-(4-methylphenyl)-6-[(4-methylsulfonyl)phenyl]-1,5-dihydro-4H-pyrazolo[3,4-d]pyrimidin-4-one] gave an inhibition at 0.25 µM of 19.3% and an inhibition at 10 µM of 23%.
Compound `CSc1ccc(-c2nc3[nH]nc(N)c3c(=O)n2-c2ccc(Cl)cc2)cc1` [Example 9, 3-Amino-5-(4-chlorophenyl)-6-[(4-methylthio)phenyl]-1,5-dihydro-4H-pyrazolo[3,4-d]pyrimidin-4-one] returned an inhibition at 10 µM against COX-2 of 27.1%. Moreover, in the experiment on NCI-H460, the “% T/C Lung (NCI-H460)” value is listed as 4%. Also, the “% T/C Breast (MCF-7)” value with MCF-7 was found to be 9%. Also, in the experiment on SF-268, the “% T/C CNS (SF-268)” value amounted to 31%.
